Assay [1] addresses purified human Factor XIa (Homo sapiens (Human), UniProt P03951). Nature of the assay: biochemical. The note with it: read-out: Factor XIa Ki. It is filed as biochemical.
Assay [2] addresses purified human plasma kallikrein (Homo sapiens (Human), UniProt P03952). The assay can be described thus: biochemical. The assay is classed as biochemical. The note with it: read-out: Plasma Kallikrein Ki.

Molecules are shown by their SMILES. Where a name gives a salt, the structure may show the parent alone.

Sequence of purified human plasma kallikrein (P03952 whole entry, looked up): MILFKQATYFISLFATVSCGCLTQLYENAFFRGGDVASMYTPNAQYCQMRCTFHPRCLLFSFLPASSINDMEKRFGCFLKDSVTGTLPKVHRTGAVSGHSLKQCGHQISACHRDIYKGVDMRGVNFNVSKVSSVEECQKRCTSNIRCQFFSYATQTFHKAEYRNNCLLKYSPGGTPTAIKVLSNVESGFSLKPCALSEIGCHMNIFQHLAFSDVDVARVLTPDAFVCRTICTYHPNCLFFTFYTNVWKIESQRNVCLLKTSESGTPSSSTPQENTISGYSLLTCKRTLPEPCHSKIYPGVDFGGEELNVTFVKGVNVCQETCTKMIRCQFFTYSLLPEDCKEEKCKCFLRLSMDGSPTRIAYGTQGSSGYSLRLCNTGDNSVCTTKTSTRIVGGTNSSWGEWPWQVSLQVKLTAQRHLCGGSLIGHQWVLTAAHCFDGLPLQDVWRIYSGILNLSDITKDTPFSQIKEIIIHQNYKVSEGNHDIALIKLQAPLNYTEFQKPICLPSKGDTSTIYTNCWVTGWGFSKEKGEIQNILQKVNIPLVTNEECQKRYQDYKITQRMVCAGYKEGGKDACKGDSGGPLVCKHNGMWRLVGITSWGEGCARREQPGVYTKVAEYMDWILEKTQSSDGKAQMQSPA
Sequence of purified human plasma kallikrein (P03952 whole entry partner, looked up): as the sequence (P03952 whole entry, looked up) above
Sequence of purified human Factor XIa (P03951 whole entry, looked up): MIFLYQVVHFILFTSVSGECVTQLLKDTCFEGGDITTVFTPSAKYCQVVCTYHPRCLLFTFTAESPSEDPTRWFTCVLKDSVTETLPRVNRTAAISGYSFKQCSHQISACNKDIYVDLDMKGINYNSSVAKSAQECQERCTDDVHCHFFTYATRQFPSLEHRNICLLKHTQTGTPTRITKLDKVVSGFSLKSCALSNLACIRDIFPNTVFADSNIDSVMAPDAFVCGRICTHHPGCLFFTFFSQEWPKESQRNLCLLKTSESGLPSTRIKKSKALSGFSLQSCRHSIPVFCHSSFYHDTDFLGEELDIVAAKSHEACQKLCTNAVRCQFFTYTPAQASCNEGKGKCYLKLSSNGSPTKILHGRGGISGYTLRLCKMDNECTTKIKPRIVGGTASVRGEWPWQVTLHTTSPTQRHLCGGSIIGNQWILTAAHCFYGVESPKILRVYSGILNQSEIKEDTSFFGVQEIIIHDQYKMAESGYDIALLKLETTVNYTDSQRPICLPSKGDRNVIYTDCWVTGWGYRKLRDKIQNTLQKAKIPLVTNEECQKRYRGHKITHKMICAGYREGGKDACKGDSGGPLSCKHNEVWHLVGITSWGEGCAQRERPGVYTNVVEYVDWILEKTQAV
Sequence of purified human Factor XIa (P03951 whole entry partner, looked up): as the sequence (P03951 whole entry, looked up) above

The Ki is the dissociation constant of the complex between target and ligand, obtained from inhibition or displacement. As to `COC(=O)Nc1ccc2c(c1)NC(=O)[C@H](C)CCC[C@H](N1CCC(c3c(C#N)ccc(Cl)c3F)=CC1=O)c1cc-2cc(=O)[nH]1` [Example 30, Methyl N-[(10R,14S)-14-[4-(3-chloro-6-cyano-2-fluorophenyl)-6-oxo-1,2,3,6-tetrahydropyridin-1-yl]-10-methyl-9,17-dioxo-8,16-diazatricyclo[13.3.1.0^2,7]nonadeca-1(18),2,4,6,15(19)-pentaen-5-yl]carbamate, TFA salt], the Ki turned out to be 0.21 nM in assay [1] and 3 nM in assay [2].
The like results for `C[C@@H]1CCC[C@H](N2CCC(c3c(Br)ccc(Cl)c3F)=CC2=O)c2cc(ccn2)-c2ccccc2NC1=O` [Example 45, (10R,14S)-14-[4-(6-Bromo-3-chloro-2-fluorophenyl)-6-oxo-1,2,3,6-tetrahydropyridin-1-yl]-10-methyl-8,16-diazatricyclo[13.3.1.0^2,7]nonadeca-1(19),2,4,6,15,17-hexaen-9-one, TFA salt] were, in that order, 2.08 nM and 7 nM.
The like results for `CC1CCC[C@H](N2CCC(c3c(F)ccc(Cl)c3F)=CC2=O)c2cc(ccn2)-c2ccc(C(N)=O)cc2NC1=O` (stereo partly drawn) [Example 107, (14S)-14-[4-(3-Chloro-2,6-difluorophenyl)-6-oxo-1,2,3,6-tetrahydropyridin-1-yl]-10-methyl-9-oxo-8,16-diazatricyclo[13.3.1.0^2,7]nonadeca-1(18),2,4,6,15(19),16-hexaene-5-carboxamide, TFA salt] were, in that order, 17.4 nM and 88 nM.
As to `Cc1ncn(-c2ccc(Cl)cc2C2=CC(=O)N([C@H]3CCC[C@@H](C)C(=O)Nc4ccccc4-c4ccnc3c4)CC2)n1` [Example 74, (10R,14S)-14-{4-[5-Chloro-2-(3-methyl-1H-1,2,4-triazol-1-yl)phenyl]-6-oxo-1,2,3,6-tetrahydropyridin-1-yl}-10-methyl-8,16-diazatricyclo[13.3.1.0^2,7]nonadeca-1(19),2(7),3,5,15,17-hexaen-9-one, TFA salt], the Ki in assay [1] was found to be 40.1 nM; in assay [2], 238 nM.
Regarding `COC(=O)c1cccc2c1-c1ccnc(c1)[C@@H](N1CCC(c3c(F)ccc(Cl)c3F)=CC1=O)CCC[C@@H](C)C(=O)N2` [Example 213, Methyl (10R,14S)-14-[4-(3-chloro-2,6-difluorophenyl)-6-oxo-1,2,3,6-tetrahydropyridin-1-yl]-10-methyl-9-oxo-8,16-diazatricyclo[13.3.1.0^2,7]nonadeca-1(19),2(7),3,5,15,17-hexaene-3-carboxylate, TFA salt], the Ki in assay [1] is > 413 nM; in assay [2] it was 3370 nM.
For the compound `C[C@@H]1CCC[C@H](N2CCC(c3c(Br)ccc(Cl)c3F)=CC2=O)c2cc(ccn2)-c2ccc(C(=O)O)cc2NC1=O` [Example 28, (14S)-14-[4-(6-Bromo-3-chloro-2-fluorophenyl)-6-oxo-1,2,3,6-tetrahydropyridin-1-yl]-10-methyl-9-oxo-8,16-diazatricyclo[13.3.1.0^2,7]nonadeca-1(19),2(7),3,5,15,17-hexaene-5-carboxylic acid, TFA salt], the values for the Ki in assay [1] and in assay [2] were > 443 nM and 196 nM, respectively.
Taken in the same sequence, the figures for `COC(=O)Nc1ccc2c(c1)NC(=O)[C@H](C)CCC[C@H](N1CCC(c3c(C(C)=O)ccc(Cl)c3F)=CC1=O)c1cc(F)cc-2c1` [Example 191, Methyl N-[(10R,14S)-14-[4-(6-acetyl-3-chloro-2-fluorophenyl)-6-oxo-1,2,3,6-tetrahydropyridin-1-yl]-17-fluoro-10-methyl-9-oxo-8-azatricyclo[13.3.1.0^2,7]nonadeca-1(19),2,4,6,15,17-hexaen-5-yl]carbamate] were 0.23 nM and 19.2 nM.
The like results for `COC(=O)Nc1ccc2c(c1)NC(=O)[C@H](C)CCC[C@H](N1CCC(c3cccc(Cl)c3OC)=CC1=O)c1cc-2ccn1` [Example 118, Methyl N-[(10R,14S)-14-[4-(3-chloro-2-methoxyphenyl)-6-oxo-1,2,3,6-tetrahydropyridin-1-yl]-10-methyl-9-oxo-8,16-diazatricyclo[13.3.1.0^2,7]nonadeca-1(18),2,4,6,15(19),16-hexaen-5-yl]carbamate] were, in that order, > 404 nM and 2030 nM.

Source of the values: US9409908B2 (priority 2012, dated 2016).
